# Measured values reported in patent US12410152B2, “Oxazole and thioazole-type cullin ring ubiquitin ligase compounds and uses thereof” (Proxygen GmbH, priority 2019, dated 2025).
# Test system: KBM7 CUL4Bmut cells
# Assay: cells
# Type: cell-based
# Conditions: not given
# Description: (§1) KBM7 cells with the specified genetic backgrounds were grown in IMDM supplemented with 10% FBS and 1% penicillin/streptomycin (pen/strep). AsPC1, HCT116, NCI-H446 and 293T cells were grown in DMEM 10% FBS and 1% pen/strep. MV4; 11, Jurkat and Be (2) C cells were grown in RPMI 10% FBS 1% pen/strep. KBM7, AsPC1 and HCT116 cells expressing Cas9 were generated using the plasmid Lenti_Cas9_Blasti (Addgene #52962). The lentiviral plasmid lentiGuide-Puro (Addgene #52963) was used to express sgRNAs against the genes UBE2M (in KBM7-Cas9, AsPC1-Cas9 and HCT116-Cas9 cells), UBE2G1 (in KBM7-Cas9 cells) and […] (in KBM7-Cas9 cells). The lentiviral plasmid lentiGuide-Puro-IRES-mCherry (modified from Addgene #52963) was used to express sgRNAs against CUL4A (in KBM7-Cas9 cells). The lentiviral plasmid pLenti-PGK-Hygro-DEST-UBE2M was generated by Gateway cloning (empty destination vector Addgene #19066), and used to generate UBE2M^resc KBM7 cells. […]
# (§2) Finally, a total of structurally similar analogs was tested to unravel structure-activity relationship of the identified molecules. To that end, their anti-cancer activity was assayed in WT cells, as well as KBM7 cells deficient in genes identified in the genome-wide CRISPR screens (UBE2M, CUL4B, UBE2G1). Moreover, the compounds were also tested in AsPC1 pancreatic cancer cells (WT or UBE2Mmut), MV4; 11 and Jurkat leukemia cells, Be (2) C neuroblastoma cells, and NCI-H446 lung cancer cells (Table 3 at the end of this document)
# (§3) KBM7^WT, mutant KBM7 clones (UBE2M^mut, UBE2M^resc, UBE2G1^mut CUL4A^mut, CUL4B^mut), and 3-day doxycycline pretreated KBM7^iCas9_sgDDB1 cells were seeded at a cell density of 50,000 cells/mL in 96-well plates with DMSO or drug, in triplicates. Drugs used: IC020772.1/IC020772.1X, IC021313.2/IC021313.2X, T6938051/T6938051X or THZ531. Cells were treated for 3 days, after which cell viability was assessed according to manufacturer's protocol (CellTiter Glo, Promega G7570). Survival curves and EC50 values were calculated by best-fit analysis of the log 10 drug concentration to fold change of drug-treated cells over DMSO-treated cells. All survival assays included technical triplicates per sample, per experiment.
row,Structure (SMILES),CC50 [µM]
1,Cc1ccc(C(=O)N2CSCC2C(=O)N=c2[nH]cc(C)s2)o1 (stereo not drawn) [Compound T6938051],110
2,O=C(CSc1nc2ccccc2[nH]1)Nc1ccc(Cl)cn1 [IC021313.2],15.7
3,O=C(CSc1nnc2c(n1)[nH]c1ccccc12)Nc1ccc(Cl)cn1 [IC020772.1],7.53

# Test system: KBM7 UBE2G1mut cells
# Assay: cells
# Type: cell-based
# Conditions: not given
# Description: as §1, §2, §3
row,Structure (SMILES),CC50 [µM]
1,Cc1ccc(C(=O)N2CSCC2C(=O)N=c2[nH]cc(C)s2)o1 (stereo not drawn) [Compound T6938051],3.47
2,O=C(CSc1nc2ccccc2[nH]1)Nc1ccc(Cl)cn1 [IC021313.2],4.34
3,O=C(CSc1nnc2c(n1)[nH]c1ccccc12)Nc1ccc(Cl)cn1 [IC020772.1],2

# Test system: KBM7-Cas9 cells
# Assay: CRISPR/Cas9 resistance screens (genome-wide Brunello and CRL-focused sgRNA libraries)
# Type: cell-based, human
# Conditions: two weeks continuous drug treatment, start 4xEC50
# Description: 293T cells seeded on 15 cm culture plates 16h before were transfected with 5 μg Brunello pooled library (Addgene #73178; 2-vector system), 2.5 μg pMD2.G (Addgene #12259), and 3.75 μg psPAX2 (Addgene #12260) using PolyFect (Qiagen) according to the manufacturer's protocol. Viral supernatant was harvested 72h after transfection and concentrated using Lenti—X-concentrator (Takara), according to the manufacturer's protocol. Concentrated viral supernatant was stored in aliquots at −80° C. and titrated to achieve a MOI of 0.2-0.3.
# 250 million KBM7-Cas9 cells were transduced at MOI 0.23, yielding a calculated library representation of 668 cells/sgRNA (library representation=50 million cells). For transduction, 20 μL of concentrated viral supernatant was added to 5 million cells in 1.5 mL IMDM and 8 μg/mL polybrene in 6-well plates. Plates were centrifuged at 2000 rpm for 1 h at 30° C. in a benchtop centrifuge, 0.5 mL IMDM were added and then incubated at 37° C. overnight. The next day, transduced cells were pooled and diluted. Pools were selected with 1 μg/mL puromycin for 5 days. Three independent resistance screens were performed with the library using drugs at starting concentrations of 4×EC50. Selective drug treatment was performed on 50 million cells/drug at a seeding density of 500,000 cells/mL. Every 5 days, cells were pooled, counted and re-seeded to 50 million cells in 100 mL, applying fresh drug. […]
# De-multiplexed raw reads were processed to count sgRNA spacer abundance using a custom script. The first 20 bp of the trimmed reads were collected and aligned against the Brunello spacer index using Bowtie2. Spacers were counted using cut-f 3|sort|uniq -c on the aligned SAM files. […] Log 2 fold changes of drug treatment vs DMSO were calculated from normalized counts, omitting spacers with no reads in the DMSO condition. The enrichment rank of each spacer sequence was expressed as a fraction of the total number of spacers, so that the most enriched spacer is assigned a perturbation strength of 1, in accordance with the STARS algorithm. […]
row,Structure (SMILES),gene enrichment in drug-tolerant populations (genome-wide CRISPR screen)
1,Cc1ccc(C(=O)N2CSCC2C(=O)N=c2[nH]cc(C)s2)o1 (stereo not drawn) [Compound T6938051],striking enrichment in only four genes
2,O=C(CSc1nc2ccccc2[nH]1)Nc1ccc(Cl)cn1 [IC021313.2],striking enrichment in only four genes
3,O=C(CSc1nnc2c(n1)[nH]c1ccccc12)Nc1ccc(Cl)cn1 [IC020772.1],striking enrichment in only four genes
